Source: US7943608B2, “Diazepinoes” (Merck Patent GmbH, priority 2005, dated 2011)

target: T1, His6-PDK1(Δ1-50) (Homo sapiens, UniProt O15530); test: Inhibition of PDK1 (IC50), 384-well flashplate kinase assay; assay type: biochemical; details: 4 μM ATP, 400 nM PDKtide, second part of Table 1 (compounds 32-124)
T1 construct: His6 (N)
T1 sequence (O15530 51-556): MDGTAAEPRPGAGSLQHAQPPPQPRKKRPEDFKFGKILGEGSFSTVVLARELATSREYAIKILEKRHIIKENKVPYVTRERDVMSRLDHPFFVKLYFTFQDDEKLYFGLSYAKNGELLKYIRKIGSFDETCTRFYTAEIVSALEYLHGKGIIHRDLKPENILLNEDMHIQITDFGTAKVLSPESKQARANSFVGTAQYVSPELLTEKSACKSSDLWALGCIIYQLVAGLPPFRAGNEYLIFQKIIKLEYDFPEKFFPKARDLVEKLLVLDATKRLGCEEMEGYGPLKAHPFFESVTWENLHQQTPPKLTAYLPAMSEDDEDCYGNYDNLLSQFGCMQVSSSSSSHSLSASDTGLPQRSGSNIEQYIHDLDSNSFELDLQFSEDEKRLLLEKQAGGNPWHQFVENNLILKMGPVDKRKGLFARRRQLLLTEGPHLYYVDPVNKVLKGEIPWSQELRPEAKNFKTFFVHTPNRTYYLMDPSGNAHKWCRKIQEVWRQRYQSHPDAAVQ
Method: Inhibition of PDK1 (IC50)
The kinase assay can be carried out as a 384-well flashplate assay. 3.4 nM His6-PDK1(Δ1-50), 400 nM PDKtide (biotin-bA-bA-[…]) and 4 μM ATP (with 0.2 μCi of 33P-ATP/well) are incubated at […] for 60 min in a total volume of 50 μl (50 mM TRIS, 10 mM Mg acetate, 0.1% of mercaptoethanol, 0.02% of Brij35, 0.1% of BSA, pH 7.5) with or without test substance (5-10 concentrations). The reaction is stopped using 25 μl of 200 mM EDTA solution, filtered with suction after 30 min at room temperature, and the wells are washed with 3 times 100 μl of 0.9% NaCl solution. The nonspecific content of the kinase reaction (blank) is determined using 100 nM staurosporine. Radioactivity is measured using a Topcount scintillation counter (PerkinElmer, USA). IC50 values are calculated using the RS1 computer program.

Row | Compound | IC50 [nM]
1 | CC(C)Cn1cc(-c2ccc3c(c2)NC(=O)c2cnc(N(C)C4CCN(C)CC4)nc2N3)cn1 [Compound 70] | 110
2 | CN(c1ncc2c(n1)Nc1ccc(C(C)(C)C)cc1NC2=O)C1CCNCC1 [Compound 71] | 430
3 | Cc1cc2c(cc1C)Nc1nc(N(C)C3CCN(C(=O)CCN(C)C)CC3)ncc1C(=O)N2 [Compound 72] | 8100
4 | Cc1cc2c(cc1C)Nc1nc(N(C)C3CCN(CCN(C)C)CC3)ncc1C(=O)N2 [Compound 73] | 3900
5 | Cc1cc2c(cc1C)Nc1nc(N(C)C3CCNCC3)ncc1C(=O)N2 [Compound 74] | 320
6 | CC(C)NC(=O)Nc1ccc2c(c1)Nc1nc(N(C)C3CCN(C)CC3)ncc1C(=O)N2 [Compound 75] | 960
7 | CCNC(=O)Nc1ccc2c(c1)Nc1nc(N(C)C3CCN(C)CC3)ncc1C(=O)N2 [Compound 76] | 1300
8 | CCC(C)NC(=O)Nc1ccc2c(c1)Nc1nc(N(C)C3CCN(C)CC3)ncc1C(=O)N2 (centres unmarked) [Compound 77] | 940
9 | CN1CCC(N(C)c2ncc3c(n2)Nc2ccc(NC(=O)NC4CCCC4)cc2NC3=O)CC1 [Compound 78] | 150
10 | CC(C)NC(=O)Nc1cccc2c1Nc1nc(N(C)C3CCN(C)CC3)ncc1C(=O)N2 [Compound 79] | 6000
11 | CN1CCC(N(C)c2ncc3c(n2)Nc2ccc(N)cc2NC3=O)CC1 [Compound 80] | 190
12 | CCCNC(=O)Nc1ccc2c(c1)Nc1nc(N(C)C3CCN(C)CC3)ncc1C(=O)N2 [Compound 81] | 420
13 | CN1CCC(N(C)c2ncc3c(n2)Nc2cc(NC(=O)NC4CCCCC4)ccc2NC3=O)CC1 [Compound 82] | 750
14 | CN1CCC(N(C)c2ncc3c(n2)Nc2ccc(NC(=O)NC(C)(C)C)cc2NC3=O)CC1 [Compound 83] | 200
15 | CN1CCC(N(C)c2ncc3c(n2)Nc2c(NC(=O)NC(C)(C)C)cccc2NC3=O)CC1 [Compound 84] | 5500
16 | CCNC(=O)Nc1ccc2c(c1)NC(=O)c1cnc(N(C)C3CCN(C)CC3)nc1N2 [Compound 85] | 280
17 | CCCNC(=O)Nc1ccc2c(c1)NC(=O)c1cnc(N(C)C3CCN(C)CC3)nc1N2 [Compound 86] | 280
18 | CCC(C)NC(=O)Nc1ccc2c(c1)NC(=O)c1cnc(N(C)C3CCN(C)CC3)nc1N2 (centres unmarked) [Compound 87] | 230
19 | CN1CCC(N(C)c2ncc3c(n2)Nc2ccc(NC(=O)NC4CCCCC4)cc2NC3=O)CC1 [Compound 88] | 150
20 | CN1CCC(N(C)c2ncc3c(n2)Nc2ccc(NC(=O)Nc4cccs4)cc2NC3=O)CC1 [Compound 89] | 200
21 | CN1CCC(N(C)c2ncc3c(n2)Nc2cc(NC(=O)Nc4cccs4)ccc2NC3=O)CC1 [Compound 90] | 290
22 | CCC(C)NC(=O)Nc1cccc2c1Nc1nc(N(C)C3CCN(C)CC3)ncc1C(=O)N2 (centres unmarked) [Compound 92] | 7800
23 | CN1CCC(N(C)c2ncc3c(n2)Nc2c(NC(=O)NC4CCCCC4)cccc2NC3=O)CC1 [Compound 93] | 3500
24 | CN1CCC(N(C)c2ncc3c(n2)Nc2cc(NC(=O)Nc4ccsc4)ccc2NC3=O)CC1 [Compound 94] | 160
25 | Cc1noc(C)c1NC(=O)Nc1ccc2c(c1)Nc1nc(N(C)C3CCN(C)CC3)ncc1C(=O)N2 [Compound 95] | 950
26 | CN1CCC(N(C)c2ncc3c(n2)Nc2ccc(NC(=O)Nc4ccsc4)cc2NC3=O)CC1 [Compound 99] | 120
27 | Cc1noc(C)c1NC(=O)Nc1ccc2c(c1)NC(=O)c1cnc(N(C)C3CCN(C)CC3)nc1N2 [Compound 100] | 220
28 | CN1CCC(N(C)c2ncc3c(n2)Nc2c(NC(=O)Nc4ccsc4)cccc2NC3=O)CC1 [Compound 101] | 340
29 | Cc1noc(C)c1NC(=O)Nc1cccc2c1Nc1nc(N(C)C3CCN(C)CC3)ncc1C(=O)N2 [Compound 102] | 3400
